One test has as its system OCI-Ly10. In words: Antiproliferative activity against human OCILY10 assessed as reduction in cell growth by MTS assay. The test is classed as functional, cell-based. (Tetrazolium assays rely on reduction of a dye to a coloured formazan, in cell work by metabolically active cells.)
The test system of a further test is OCI-Ly3. In words: Antiproliferative activity against human OCILY3 assessed as reduction in cell growth by MTS assay. The test is classed as functional, cell-based.
The target of test [1] is Phosphatidylinositol 4,5-bisphosphate 3-kinase catalytic subunit beta isoform (Homo sapiens, UniProt P42338). Description: Inhibition of PI3Kbeta (unknown origin).
Phosphatidylinositol 4,5-bisphosphate 3-kinase catalytic subunit beta isoform, sequence (P42338 whole entry, canonical isoform): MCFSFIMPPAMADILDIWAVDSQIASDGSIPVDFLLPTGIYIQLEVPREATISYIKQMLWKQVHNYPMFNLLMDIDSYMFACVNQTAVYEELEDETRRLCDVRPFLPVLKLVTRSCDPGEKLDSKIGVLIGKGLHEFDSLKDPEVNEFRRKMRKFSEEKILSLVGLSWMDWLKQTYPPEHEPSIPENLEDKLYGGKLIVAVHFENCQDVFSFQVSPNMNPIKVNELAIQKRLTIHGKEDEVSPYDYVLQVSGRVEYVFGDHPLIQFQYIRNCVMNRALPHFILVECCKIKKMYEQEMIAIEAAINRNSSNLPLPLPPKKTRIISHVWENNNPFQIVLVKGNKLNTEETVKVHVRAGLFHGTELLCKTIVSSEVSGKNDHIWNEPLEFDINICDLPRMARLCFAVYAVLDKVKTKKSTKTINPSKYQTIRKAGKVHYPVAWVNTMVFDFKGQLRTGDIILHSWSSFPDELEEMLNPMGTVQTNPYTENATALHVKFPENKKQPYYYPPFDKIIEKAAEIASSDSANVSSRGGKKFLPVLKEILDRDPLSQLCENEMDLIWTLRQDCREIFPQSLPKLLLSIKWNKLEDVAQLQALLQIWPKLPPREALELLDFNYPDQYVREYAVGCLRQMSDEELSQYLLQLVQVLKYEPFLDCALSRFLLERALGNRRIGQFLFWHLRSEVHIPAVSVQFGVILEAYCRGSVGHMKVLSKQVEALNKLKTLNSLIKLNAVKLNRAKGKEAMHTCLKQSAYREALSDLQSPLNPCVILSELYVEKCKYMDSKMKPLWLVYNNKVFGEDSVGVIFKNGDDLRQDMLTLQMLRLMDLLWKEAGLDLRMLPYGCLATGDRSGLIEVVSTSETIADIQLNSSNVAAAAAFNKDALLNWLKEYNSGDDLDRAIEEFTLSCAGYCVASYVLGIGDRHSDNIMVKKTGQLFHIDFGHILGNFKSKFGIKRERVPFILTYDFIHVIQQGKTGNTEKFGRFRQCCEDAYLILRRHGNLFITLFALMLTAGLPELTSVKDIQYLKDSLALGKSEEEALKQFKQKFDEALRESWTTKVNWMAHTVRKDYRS
The target in test [2] is T1, Phosphatidylinositol 4,5-bisphosphate 3-kinase catalytic subunit delta isoform (Homo sapiens, UniProt O00329).
T1 sequence (O00329 whole entry): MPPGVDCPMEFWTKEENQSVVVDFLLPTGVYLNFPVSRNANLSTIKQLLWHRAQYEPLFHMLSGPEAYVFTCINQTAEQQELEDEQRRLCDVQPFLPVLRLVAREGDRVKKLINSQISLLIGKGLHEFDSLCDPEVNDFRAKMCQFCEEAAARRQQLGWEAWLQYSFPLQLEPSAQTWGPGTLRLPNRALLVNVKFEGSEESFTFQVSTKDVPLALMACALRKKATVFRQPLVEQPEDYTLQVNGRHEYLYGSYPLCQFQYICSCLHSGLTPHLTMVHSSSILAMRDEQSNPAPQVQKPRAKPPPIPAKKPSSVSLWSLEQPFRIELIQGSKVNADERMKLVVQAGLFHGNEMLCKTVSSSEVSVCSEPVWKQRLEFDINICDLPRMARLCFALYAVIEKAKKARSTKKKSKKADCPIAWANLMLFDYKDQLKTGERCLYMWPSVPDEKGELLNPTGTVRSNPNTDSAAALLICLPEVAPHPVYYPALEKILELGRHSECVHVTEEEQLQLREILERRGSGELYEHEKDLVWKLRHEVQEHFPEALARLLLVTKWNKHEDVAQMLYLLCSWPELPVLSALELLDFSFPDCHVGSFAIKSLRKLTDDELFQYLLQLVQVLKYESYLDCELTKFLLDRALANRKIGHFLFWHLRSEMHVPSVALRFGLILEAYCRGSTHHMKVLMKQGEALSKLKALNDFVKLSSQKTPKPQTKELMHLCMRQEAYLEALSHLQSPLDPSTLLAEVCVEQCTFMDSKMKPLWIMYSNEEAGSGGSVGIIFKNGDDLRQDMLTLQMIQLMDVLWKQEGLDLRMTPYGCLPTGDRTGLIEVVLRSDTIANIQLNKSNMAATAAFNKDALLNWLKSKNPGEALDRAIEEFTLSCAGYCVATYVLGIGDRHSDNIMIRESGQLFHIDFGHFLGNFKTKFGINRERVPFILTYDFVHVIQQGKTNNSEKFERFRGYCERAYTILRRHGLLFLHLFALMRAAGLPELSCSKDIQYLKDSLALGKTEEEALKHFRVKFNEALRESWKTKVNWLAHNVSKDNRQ
In words: Inhibition of PI3Kdelta (unknown origin).

The target of test [3] is Phosphatidylinositol 4,5-bisphosphate 3-kinase catalytic subunit alpha isoform (Homo sapiens, UniProt P42336). In words: Inhibition of PI3Kalpha (unknown origin).
Phosphatidylinositol 4,5-bisphosphate 3-kinase catalytic subunit alpha isoform, sequence (P42336 whole entry, canonical isoform): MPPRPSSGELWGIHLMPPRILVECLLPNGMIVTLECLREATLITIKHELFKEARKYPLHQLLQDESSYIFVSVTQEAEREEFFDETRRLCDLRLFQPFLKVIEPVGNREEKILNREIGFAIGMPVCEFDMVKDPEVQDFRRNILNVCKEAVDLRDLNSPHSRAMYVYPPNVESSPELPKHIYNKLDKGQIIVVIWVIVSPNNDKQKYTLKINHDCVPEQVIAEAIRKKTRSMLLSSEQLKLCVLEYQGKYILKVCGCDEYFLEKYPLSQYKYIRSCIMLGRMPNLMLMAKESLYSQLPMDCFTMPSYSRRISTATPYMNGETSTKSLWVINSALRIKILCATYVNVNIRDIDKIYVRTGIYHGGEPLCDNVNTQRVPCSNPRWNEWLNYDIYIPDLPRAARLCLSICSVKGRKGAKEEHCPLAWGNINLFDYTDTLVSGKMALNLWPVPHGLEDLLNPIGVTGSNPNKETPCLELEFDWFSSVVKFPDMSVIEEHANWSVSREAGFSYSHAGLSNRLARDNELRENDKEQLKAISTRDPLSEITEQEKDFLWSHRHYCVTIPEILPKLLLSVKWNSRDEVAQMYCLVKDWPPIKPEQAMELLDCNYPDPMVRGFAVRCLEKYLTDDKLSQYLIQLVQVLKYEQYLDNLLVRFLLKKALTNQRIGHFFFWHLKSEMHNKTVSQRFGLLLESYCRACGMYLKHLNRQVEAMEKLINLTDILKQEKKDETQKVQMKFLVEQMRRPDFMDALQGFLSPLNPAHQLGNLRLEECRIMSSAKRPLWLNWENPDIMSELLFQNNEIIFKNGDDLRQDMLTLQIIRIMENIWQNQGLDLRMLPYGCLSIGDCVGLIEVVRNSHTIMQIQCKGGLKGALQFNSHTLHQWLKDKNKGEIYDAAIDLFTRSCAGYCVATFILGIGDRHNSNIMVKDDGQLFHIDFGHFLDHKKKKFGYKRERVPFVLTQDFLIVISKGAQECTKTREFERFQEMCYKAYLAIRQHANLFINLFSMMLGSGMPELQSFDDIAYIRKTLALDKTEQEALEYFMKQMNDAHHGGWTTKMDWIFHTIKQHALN
A further test has as its system JeKo-1. Description: Antiproliferative activity against human JeKo-1 assessed as reduction in cell growth by MTS assay. The test is classed as functional, cell-based.
The target in test [4] is Phosphatidylinositol 4,5-bisphosphate 3-kinase catalytic subunit gamma isoform (Homo sapiens, UniProt P48736). Description: Inhibition of PI3Kgamma (unknown origin).
Phosphatidylinositol 4,5-bisphosphate 3-kinase catalytic subunit gamma isoform, sequence (P48736 whole entry, canonical isoform): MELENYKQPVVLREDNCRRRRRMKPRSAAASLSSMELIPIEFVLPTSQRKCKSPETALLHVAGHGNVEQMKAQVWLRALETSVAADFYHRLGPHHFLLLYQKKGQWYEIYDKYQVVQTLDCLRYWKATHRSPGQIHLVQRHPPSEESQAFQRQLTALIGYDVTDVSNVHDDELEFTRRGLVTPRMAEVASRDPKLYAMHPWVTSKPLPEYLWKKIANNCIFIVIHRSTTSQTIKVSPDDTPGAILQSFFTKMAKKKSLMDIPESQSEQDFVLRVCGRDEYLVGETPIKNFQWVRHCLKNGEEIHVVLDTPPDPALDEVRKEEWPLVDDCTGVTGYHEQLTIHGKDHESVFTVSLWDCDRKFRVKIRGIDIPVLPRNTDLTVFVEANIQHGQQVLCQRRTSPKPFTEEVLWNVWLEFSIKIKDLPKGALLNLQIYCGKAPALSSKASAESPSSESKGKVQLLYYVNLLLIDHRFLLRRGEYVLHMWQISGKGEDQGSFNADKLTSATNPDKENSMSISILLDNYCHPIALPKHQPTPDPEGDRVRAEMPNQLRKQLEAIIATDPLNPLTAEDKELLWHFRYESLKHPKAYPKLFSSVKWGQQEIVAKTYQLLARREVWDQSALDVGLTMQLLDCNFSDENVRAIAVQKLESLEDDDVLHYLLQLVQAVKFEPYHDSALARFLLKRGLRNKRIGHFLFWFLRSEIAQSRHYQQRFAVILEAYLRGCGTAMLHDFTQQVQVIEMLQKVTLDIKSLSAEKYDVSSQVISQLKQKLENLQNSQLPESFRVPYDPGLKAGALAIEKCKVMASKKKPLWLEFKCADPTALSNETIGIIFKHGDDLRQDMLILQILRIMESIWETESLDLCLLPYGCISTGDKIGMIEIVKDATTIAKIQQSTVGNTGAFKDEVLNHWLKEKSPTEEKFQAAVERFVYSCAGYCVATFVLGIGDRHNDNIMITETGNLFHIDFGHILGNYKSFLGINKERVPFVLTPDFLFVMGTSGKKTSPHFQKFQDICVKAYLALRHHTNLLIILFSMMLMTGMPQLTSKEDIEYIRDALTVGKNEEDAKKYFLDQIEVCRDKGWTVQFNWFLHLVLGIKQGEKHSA
The next test deals with L02. Description: Cytotoxicity against human L02 cells assessed as reduction in cell viability by MTS assay. The test is classed as cell-based.
Another test has as its system SU-DHL-6. In words: Antiproliferative activity against human SU-DHL-6 assessed as reduction in cell growth by MTS assay. The test is classed as functional, cell-based.
For a further test, the system named is Vero. Description: Cytotoxicity against monkey Vero cells assessed as reduction in cell viability by MTS assay. The settings on record: Chlorocebus sabaeus. The test is classed as cell-based.
For another test, the system named is HEK293. Description: Cytotoxicity against human HEK293 cells assessed as reduction in cell viability by MTS assay. The test is classed as cell-based.

A value given as a limit tells only on which side of the number the result lay.

For `CCc1nc2ccccc2n1-c1nc(N2CCOCC2)c2sc(CN3CCN(C(=O)C4CC4)CC3=O)cc2n1`, the concentration for half-maximal inhibition (IC50) (commonly the midpoint of a concentration-inhibition curve) in the test on OCI-Ly10 was 7.6 µM; in the test on OCI-Ly3, 2.2 µM; in test [1], 0.137 µM; in [2], 0.0011 µM; in [3] it was 0.084 µM; with JeKo-1, 0.19 µM. Also, the half-maximal inhibitory concentration (IC50) was 0.185 µM in test [4]; greater than 20 µM with L02; 0.1 µM in the test on SU-DHL-6; greater than 20 µM in the test on Vero; greater than 20 µM in the test on HEK293.
In the case of `CCc1nc2ccccc2n1-c1nc(N2CCOCC2)c2sc(CN3CCN(C4CCCC4)CC3=O)cc2n1`, the IC50 with OCI-Ly10 is greater than 10 µM; with OCI-Ly3, 6.9 µM; in test [1], greater than 0.5 µM; in [2], 0.0029 µM; in test [3], 0.243 µM; in the test with JeKo-1 it was 0.56 µM. Moreover, the IC50 was 0.37 µM in test [4]; greater than 20 µM in the test with L02; 0.53 µM in the test with SU-DHL-6; greater than 20 µM in the test with Vero; greater than 20 µM in the test with HEK293.
As for `CCc1nc2ccccc2n1-c1nc(N2CCOCC2)c2sc(CN3CCN(C4CCCC4)C(=O)C3)cc2n1`, the half-inhibitory concentration (IC50) in the test on OCI-Ly10 is greater than 10 µM; in the test with OCI-Ly3, 2.8 µM; in [1], greater than 0.5 µM; in test [2], 0.0021 µM; in test [3], 0.25 µM; with JeKo-1, 0.17 µM. The half-maximal inhibitory concentration (IC50) in test [4] was greater than 0.5 µM; in the test with L02, greater than 20 µM; in the test on SU-DHL-6, 0.18 µM; in the test with Vero, greater than 20 µM; with HEK293, greater than 20 µM.
For the molecule `CCc1nc2ccccc2n1-c1nc(N2CCOCC2)c2sc(CN3CCN(C(=O)C4CCC4)CC3=O)cc2n1`, the IC50 in the test with OCI-Ly10 is greater than 10 µM; in the test with OCI-Ly3, 1.5 µM; in test [1], 0.165 µM; in [2], 0.0014 µM; in test [3], 0.117 µM; in the test with JeKo-1, 0.12 µM. The IC50 in test [4] is 0.303 µM; in the test with L02, greater than 20 µM; in the test on SU-DHL-6, 0.08 µM; with Vero, greater than 20 µM; in the test with HEK293, greater than 20 µM.
